Values joined by “and” are separate entries in the source; they are usually repeats but may differ in a detail not shown here. Equal entries are not always repeated. Toxic doses and inconclusive results are not listed.
System: CD2F1 mice, L1210 leukemia ip, survival T/C
Assay: NCI In Vivo Anticancer Drug Screen. Data for tumor model L1210 Leukemia (intraperitoneal) in CD2F1 (CDF1) mice
Details: higher = longer survival
Outline: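 Compound-dosed mice with transplantable tumor versus matched vehicle controls; endpoint ratio T/C reported.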

[1] = endpoint: mean survival time, dose: 400.0 mg/kg/injection, schedule: Q01DX009 (ip), vehicle: saline with Tween-80
[2] = endpoint: mean survival time, dose: 25.0 mg/kg/injection, schedule: Q01DX009 (ip), vehicle: saline with Tween-80
[3] = endpoint: mean survival time, dose: 100.0 mg/kg/injection, schedule: Q04DX003 (ip), vehicle: saline with Tween-80
[4] = endpoint: mean survival time, dose: 100.0 mg/kg/injection, schedule: Q01DX001 (ip), vehicle: saline with Tween-80
[5] = endpoint: mean survival time, dose: 200.0 mg/kg/injection, schedule: Q01DX001 (ip), vehicle: saline with Tween-80
[6] = endpoint: mean survival time, dose: 400.0 mg/kg/injection, schedule: Q01DX001 (ip), vehicle: saline with Tween-80
[7] = endpoint: mean survival time, dose: 200.0 mg/kg/injection, schedule: Q04DX003 (ip), vehicle: saline with Tween-80
[8] = endpoint: mean survival time, dose: 400.0 mg/kg/injection, schedule: Q04DX003 (ip), vehicle: saline with Tween-80
[9] = endpoint: mean survival time, dose: 100.0 mg/kg/injection, schedule: Q04DX002 (ip), vehicle: saline with Tween-80
[10] = endpoint: mean survival time, dose: 200.0 mg/kg/injection, schedule: Q04DX002 (ip), vehicle: saline with Tween-80
[11] = endpoint: mean survival time, dose: 100.0 mg/kg/injection, schedule: Q01DX009 (ip), vehicle: DMSO
[12] = endpoint: mean survival time, dose: 100.0 mg/kg/injection, schedule: Q01DX009 (ip), vehicle: saline with Tween-80
[13] = endpoint: mean survival time, dose: 200.0 mg/kg/injection, schedule: Q01DX009 (ip), vehicle: saline with Tween-80
[14] = endpoint: mean survival time, dose: 50.0 mg/kg/injection, schedule: Q01DX009 (ip), vehicle: saline with Tween-80

`Cc1cc2c(C(C)C)c(O)c(O)c(C=NCCO)c2c(O)c1-c1c(C)cc2c(C(C)C)c(O)c(O)c(C=NCCO)c2c1O` was tested, and the T/C (endpoint: median survival time, dose: 25.0 mg/kg/injection, schedule: Q01DX009 (ip), vehicle: saline with Tween-80) was 105 % of control, the T/C (endpoint: median survival time, dose: 50.0 mg/kg/injection, schedule: Q01DX009 (ip), vehicle: saline with Tween-80) was 97 % of control and the T/C (endpoint: median survival time, dose: 100.0 mg/kg/injection, schedule: Q01DX009 (ip), vehicle: saline with Tween-80) was 101 % of control. The T/C (endpoint: median survival time, dose: 200.0 mg/kg/injection, schedule: Q01DX009 (ip), vehicle: saline with Tween-80) was 104 % of control and the T/C (endpoint: median survival time, dose: 400.0 mg/kg/injection, schedule: Q01DX009 (ip), vehicle: saline with Tween-80) was 89 % of control.

`NC1CCCCC1N.O=C1C=CC(=C(c2ccc(O)cc2)c2ccccc2S(=O)(=O)[O-])C=C1.O=[N+]([O-])[O-].[Pt+4]` was tested, and the T/C (endpoint: median survival time, dose: 1.56 mg/kg/injection, schedule: Q04DX003 (ip), vehicle: saline) was 170 % of control, the T/C (endpoint: median survival time, dose: 3.12 mg/kg/injection, schedule: Q04DX003 (ip), vehicle: saline with Tween-80) was 361 % of control and the T/C (endpoint: median survival time, dose: 3.12 mg/kg/injection, schedule: Q04DX003 (ip), vehicle: saline) was 353 % of control. The T/C (endpoint: median survival time, dose: 6.25 mg/kg/injection, schedule: Q04DX003 (ip), vehicle: saline with Tween-80) was 361 % of control, the T/C (endpoint: median survival time, dose: 6.25 mg/kg/injection, schedule: Q04DX003 (ip), vehicle: saline) was 243 % of control and the T/C (endpoint: median survival time, dose: 12.5 mg/kg/injection, schedule: Q04DX003 (ip), vehicle: saline) was 365 % of control.

In the case of `O=C1CN=C(c2ccccn2)c2cc(Cl)ccc2N1`, the T/C (endpoint: mean survival time, dose: 267.0 mg/kg/injection, schedule: Q01DX009 (ip), vehicle: saline with Tween-80) is reported as 92 % of control and the T/C [1] is reported as 92 % of control.

`CCCCC(=O)N(c1ccc(Nc2c3ccccc3nc3cc([N+](=O)[O-])ccc23)cc1)S(C)(=O)=O` was tested, and the T/C (endpoint: mean survival time, dose: 2.1 mg/kg/injection, schedule: Q04DX003 (ip), vehicle: Klucel (hydroxypropylcellulose) (HPC)) was 117 % of control, the T/C [2] was 96 % of control and the T/C [3] was 98 % of control. For the same compound, the T/C (endpoint: mean survival time, dose: 100.0 mg/kg/injection, schedule: Q04DX003 (ip), vehicle: saline) was 167 % of control, the T/C (endpoint: mean survival time, dose: 150.0 mg/kg/injection, schedule: Q04DX003 (ip), vehicle: saline with Tween-80) was 93 % of control and the T/C (endpoint: mean survival time, dose: 200.0 mg/kg/injection, schedule: Q04DX003 (ip), vehicle: saline) was 113 % of control.

With `Nc1nc(N)c(-c2cccc(Cl)c2)c(COc2ccc([N+](=O)[O-])cc2)n1` the T/C [4] was 94 % of control, the T/C [5] was 92 % of control and the T/C [6] was 93 % of control.

`CCOC(=O)c1c(-c2ccccc2)[nH]c2ccccc2c1=O` was tested, and the T/C [3] was 96 % of control, the T/C [7] was 98 % of control and the T/C [8] was 95 % of control.

In the case of `CC(=O)OC1(c2ccccc2)OC(=O)c2ccccc21` (configuration not stated), the T/C [9] is reported as 97 % of control, the T/C [10] is reported as 91 % of control and the T/C (endpoint: mean survival time, dose: 400.0 mg/kg/injection, schedule: Q04DX002 (ip), vehicle: saline with Tween-80) is reported as 108 % of control.

In the case of `O=C1NC(=O)NC(C(=O)O)N1`, the T/C (endpoint: mean survival time, dose: 1.56 mg/kg/injection, schedule: Q01DX009 (ip), vehicle: DMSO) is reported as 92 % of control, the T/C (endpoint: mean survival time, dose: 3.12 mg/kg/injection, schedule: Q01DX009 (ip), vehicle: DMSO) is reported as 96 % of control and the T/C (endpoint: mean survival time, dose: 6.25 mg/kg/injection, schedule: Q01DX009 (ip), vehicle: DMSO) is reported as 96 % of control. The T/C (endpoint: mean survival time, dose: 12.5 mg/kg/injection, schedule: Q01DX009 (ip), vehicle: DMSO) was 94 % of control and 98 % of control, the T/C (endpoint: mean survival time, dose: 25.0 mg/kg/injection, schedule: Q01DX009 (ip), vehicle: DMSO) was 97 % of control and 98 % of control and 101 % of control and the T/C (endpoint: mean survival time, dose: 50.0 mg/kg/injection, schedule: Q01DX009 (ip), vehicle: DMSO) was 97 % of control and 100 % of control. The T/C [11] was 94 % of control and 97 % of control, the T/C (endpoint: mean survival time, dose: 200.0 mg/kg/injection, schedule: Q01DX009 (ip), vehicle: DMSO) was 102 % of control and the T/C (endpoint: mean survival time, dose: 400.0 mg/kg/injection, schedule: Q01DX009 (ip), vehicle: DMSO) was 98 % of control.

For `CC(=O)Nc1ncc2ccccc2c1-c1ccc(N(CCOS(=O)(=O)c2ccc(C)cc2)CCOS(=O)(=O)c2ccc(C)cc2)cc1`, the T/C (endpoint: mean survival time, dose: 25.0 mg/kg/injection, schedule: Q04DX003 (ip), vehicle: DMSO) was 108 % of control, the T/C (endpoint: mean survival time, dose: 50.0 mg/kg/injection, schedule: Q04DX003 (ip), vehicle: DMSO) was 104 % of control and the T/C (endpoint: mean survival time, dose: 100.0 mg/kg/injection, schedule: Q04DX003 (ip), vehicle: DMSO) was 110 % of control. For the same compound, the T/C (endpoint: mean survival time, dose: 200.0 mg/kg/injection, schedule: Q04DX003 (ip), vehicle: DMSO) was 116 % of control and the T/C (endpoint: mean survival time, dose: 400.0 mg/kg/injection, schedule: Q04DX003 (ip), vehicle: DMSO) was 108 % of control.

In the case of `CCCCCCC(O)C/C=C\CCCCCCCC(=O)O` (configuration not stated), the T/C (endpoint: mean survival time, dose: 50.0 mg/kg/injection, schedule: Q04DX002 (ip), vehicle: saline) is reported as 86 % of control and the T/C (endpoint: mean survival time, dose: 100.0 mg/kg/injection, schedule: Q04DX002 (ip), vehicle: saline) is reported as 90 % of control.

`C=CCCCCCCCCC(=O)NCC1CC1` was tested, and the T/C [12] was 94 % of control, the T/C [13] was 100 % of control and the T/C [1] was 86 % of control.

`O=C(O)c1cc(F)ccc1Cl` was tested, and the T/C [9] was 97 % of control and the T/C [10] was 86 % of control.

With `COC(=O)N1c2ccc(OC)cc2C=CC1C#N` (configuration not stated) the T/C [12] was 94 % of control, the T/C [3] was 96 % of control and the T/C [13] was 95 % of control. For the same compound, the T/C [7] was 102 % of control, the T/C [1] was 103 % of control and the T/C [8] was 94 % of control.

In the case of `OC12CC(C(F)(F)F)(C(F)(F)F)OC1(O)CC(C(F)(F)F)(C(F)(F)F)O2` (configuration not stated), the T/C [14] is reported as 95 % of control, the T/C [12] is reported as 95 % of control and the T/C [13] is reported as 95 % of control.

`O=CC(O)C(O)C(O)CO` (configuration not stated) was tested, and the T/C (endpoint: mean survival time, dose: 100.0 mg/kg/injection, schedule: Q01DX001 (ip), vehicle: saline) was 96 % of control, the T/C (endpoint: mean survival time, dose: 200.0 mg/kg/injection, schedule: Q01DX001 (ip), vehicle: saline) was 93 % of control and the T/C (endpoint: mean survival time, dose: 400.0 mg/kg/injection, schedule: Q01DX001 (ip), vehicle: saline) was 98 % of control.

With `CCN(CC)P(=O)(NCCCl)OC` (configuration not stated) the T/C [11] was 103 % of control.

For `CC(C)(C)CC(C)(C)c1ccc(OCCOc2ccc(C(=O)Nc3ccc(S(=O)(=O)Oc4ccccc4)cc3)cc2[N+](=O)[O-])cc1`, the T/C (endpoint: mean survival time, dose: 100.0 mg/kg/injection, schedule: Q01DX009 (ip), vehicle: Klucel (hydroxypropylcellulose) (HPC)) was 101 % of control, the T/C [3] was 98 % of control and the T/C (endpoint: mean survival time, dose: 200.0 mg/kg/injection, schedule: Q01DX009 (ip), vehicle: Klucel (hydroxypropylcellulose) (HPC)) was 106 % of control. The T/C [7] was 93 % of control, the T/C (endpoint: mean survival time, dose: 400.0 mg/kg/injection, schedule: Q01DX009 (ip), vehicle: Klucel (hydroxypropylcellulose) (HPC)) was 95 % of control and the T/C [8] was 92 % of control.

With `[I][Pt+2][I].[NH-]CC[NH-]` the T/C (endpoint: mean survival time, dose: 20.0 mg/kg/injection, schedule: Q04DX003 (ip), vehicle: water) was 115 % of control, the T/C (endpoint: mean survival time, dose: 40.0 mg/kg/injection, schedule: Q04DX003 (ip), vehicle: water) was 116 % of control and the T/C (endpoint: mean survival time, dose: 80.0 mg/kg/injection, schedule: Q04DX003 (ip), vehicle: water) was 120 % of control. For the same compound, the T/C (endpoint: mean survival time, dose: 160.0 mg/kg/injection, schedule: Q04DX003 (ip), vehicle: water) was 115 % of control and the T/C (endpoint: mean survival time, dose: 320.0 mg/kg/injection, schedule: Q04DX003 (ip), vehicle: water) was 93 % of control.

`Cc1ccccc1N=C=S` was tested, and the T/C (endpoint: mean survival time, dose: 12.5 mg/kg/injection, schedule: Q01DX009 (ip), vehicle: saline with Tween-80) was 98 % of control, the T/C [2] was 96 % of control and the T/C [14] was 106 % of control.

In the case of `Cc1ccccc1NC(=O)CC#N`, the T/C [2] is reported as 96 % of control, the T/C [14] is reported as 96 % of control and the T/C [12] is reported as 94 % of control.

With `CN(C)C/C(=C\c1ccccc1)C(=O)c1ccccc1` the T/C (endpoint: mean survival time, dose: 12.5 mg/kg/injection, schedule: Q04DX003 (ip), vehicle: other) was 98 % of control, the T/C (endpoint: mean survival time, dose: 25.0 mg/kg/injection, schedule: Q04DX003 (ip), vehicle: other) was 97 % of control and the T/C (endpoint: mean survival time, dose: 50.0 mg/kg/injection, schedule: Q04DX003 (ip), vehicle: other) was 101 % of control.

In the case of `O=c1c(O)c(-c2cc(O)c(O)c(O)c2)oc2cc(O)cc(O)c12`, the T/C [2] is reported as 98 % of control, the T/C [14] is reported as 91 % of control and the T/C [12] is reported as 93 % of control. For the same compound, the T/C [13] was 95 % of control.

For `CC1(C)NC(=O)N(Br)C1=O`, the T/C [12] was 88 % of control, the T/C [3] was 103 % of control and the T/C [13] was 89 % of control. The T/C [7] was 96 % of control and the T/C [8] was 103 % of control.

With `CC1Sc2ccccc2-c2[nH]c3ccccc3c21` (configuration not stated) the T/C [3] was 97 % of control, the T/C [7] was 87 % of control and the T/C [8] was 90 % of control.

For `O=C1c2ccccc2SCCC1C(O)c1ccccc1` (configuration not stated), the T/C [4] was 94 % of control, the T/C [5] was 94 % of control and the T/C [6] was 94 % of control.

Source: PubChem BioAssay AID256 (DTP/NCI, 2004)
